For 14 compounds, Ki results are on record in patent publication US8586588B2, “Aryl pyridazinone derivatives and their use as H3 receptor ligands” (Cephalon, Inc., priority 2006, dated 2013).

One assay has as its target T1, human H3 receptor (Homo sapiens, UniProt Q9Y5N1).
T1 construct: expressed in transfected cells
As to the kind of experiment: Human H3 radioligand binding ([3H]-N-alpha-methylhistamine, CHO cell membranes, SPA). The note with it: Table B, binding constant as letter class. The method, boiled down:
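CHO cell membranes expressing human H3 (10 μg protein/well) incubated 4 h at room temperature, in the dark, with ~1 nM [3H]-N-alpha-methylhistamine, compounds (0.01 nM-30 μM) and SPA beads in 50 mM Tris HCl pH 7.4, 5 mM MgCl2, 0.1% BSA. Non-specific binding defined with 10 μM clobenpropit.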

The target in assay [1] is T2, rat histamine H3 receptor (Rattus norvegicus, UniProt Q9QYN8).
T2 construct: encoding the entire 445-amino-acid rat histamine H3 receptor; expressed in transfected cells
T2 sequence (Q9QYN8 whole entry): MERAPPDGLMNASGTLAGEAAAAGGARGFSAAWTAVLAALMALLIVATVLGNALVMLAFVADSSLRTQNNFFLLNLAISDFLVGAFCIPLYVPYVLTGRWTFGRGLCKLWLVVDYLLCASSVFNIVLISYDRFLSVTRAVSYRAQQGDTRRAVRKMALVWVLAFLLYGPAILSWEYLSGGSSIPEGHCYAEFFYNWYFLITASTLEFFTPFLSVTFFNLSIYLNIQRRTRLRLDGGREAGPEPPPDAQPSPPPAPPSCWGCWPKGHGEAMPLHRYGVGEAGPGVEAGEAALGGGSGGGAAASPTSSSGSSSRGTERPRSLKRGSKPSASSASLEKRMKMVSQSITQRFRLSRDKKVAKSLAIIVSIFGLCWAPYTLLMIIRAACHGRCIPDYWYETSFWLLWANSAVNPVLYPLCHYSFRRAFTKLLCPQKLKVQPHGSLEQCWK
As to the kind of experiment: Rat H3 radioligand binding ([3H]-N-alpha-methylhistamine, CHO-A3 cell membranes, SPA). The note with it: Table B, binding constant as letter class; read-out: rat H3 Ki. The procedure, abridged: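 Membranes from CHO-A3 cells stably expressing rat H3 (10 μg protein) incubated 4 h at room temperature in 50 mM Tris-HCl pH 7.4, 5 mM MgCl2, 0.1% BSA with ~1 nM [3H]-N-alpha-methylhistamine and compound (0.01 nM-30 μM). Bound radioligand read by scintillation proximity; nonspecific binding with 10 μM clobenpropit.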

T1 sequence (Q9Y5N1 whole entry): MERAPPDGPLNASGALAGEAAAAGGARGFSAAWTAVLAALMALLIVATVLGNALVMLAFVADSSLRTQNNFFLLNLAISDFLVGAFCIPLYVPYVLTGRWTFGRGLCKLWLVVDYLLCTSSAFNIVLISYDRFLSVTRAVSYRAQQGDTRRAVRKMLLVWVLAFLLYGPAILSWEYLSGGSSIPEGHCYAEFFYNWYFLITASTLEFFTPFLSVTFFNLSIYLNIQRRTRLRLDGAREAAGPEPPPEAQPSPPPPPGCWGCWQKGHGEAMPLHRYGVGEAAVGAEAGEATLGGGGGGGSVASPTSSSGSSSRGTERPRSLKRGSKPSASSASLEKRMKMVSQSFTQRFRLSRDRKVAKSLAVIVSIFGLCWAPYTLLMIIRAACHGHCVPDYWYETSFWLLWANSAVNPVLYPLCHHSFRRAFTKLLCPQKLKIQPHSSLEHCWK

On to `Cc1n[nH]c(=O)cc1-c1ccc(OC2CCN(C3CCC3)CC2)cc1` [Example 103, 5-[4-(1-Cyclobutyl-piperidin-4-yloxy)-phenyl]-6-methyl-2H-pyridazin-3-one], for which the Ki (on human H3 receptor; in assay [1]) was 0.0001 to 0.1 µM throughout.

Consider `Cc1nn(-c2ccccn2)c(=O)cc1-c1ccc(OC2CCN(C3CCC3)CC2)cc1` [Example 104, 5-[4-(1-Cyclobutyl-piperidin-4-yloxy)-phenyl]-6-methyl-2-pyridin-2-yl-2H-pyridazin-3-one], for which the Ki (on human H3 receptor; in assay [1]) was 0.0001 to 0.1 µM each time.

`O=c1cc(-c2ccc(OC3CCNCC3)cc2)cn[nH]1` [Example 105, 5-[4-(Piperidin-4-yloxy)-phenyl]-2H-pyridazin-3-one]: the Ki (on human H3 receptor; in assay [1]) was more than 1 µM in each case.

As to `O=c1cc(-c2ccc(OC3CCN(C4CCC4)CC3)cc2)cn[nH]1` [Example 106, 5-[4-(1-Cyclobutyl-piperidin-4-yloxy)-phenyl]-2H-pyridazin-3-one], the Ki (on human H3 receptor; in assay [1]) was 0.0001 to 0.1 µM each time.

`Cc1nn(-c2ccsc2)c(=O)cc1-c1ccc(OC2CCN(C3CCC3)CC2)cc1` [Example 107, 5-[4-(1-Cyclobutyl-piperidin-4-yloxy)-phenyl]-6-methyl-2-thiophen-3-yl-2H-pyridazin-3-one]: the Ki (at human H3 receptor; in assay [1]) was 0.0001 to 0.1 µM each time.

For `Cc1nn(-c2ccsc2)c(=O)cc1-c1ccc(OCCCN2CCC[C@H]2C)cc1` [Example 108, 6-Methyl-5-{4-[3-((R)-2-methyl-pyrrolidin-1-yl)-propoxy]-phenyl}-2-thiophen-3-yl-2H-pyridazin-3-one], the Ki (at human H3 receptor; in assay [1]) was 0.0001 to 0.1 µM in each case.

Take `C[C@@H]1CCCN1CCCOc1ccc(C2=NNC(=O)CC2c2ccccn2)cc1` (stereo partly drawn) [Example 111, 6-{4-[3-((R)-2-Methyl-pyrrolidin-1-yl)-propoxy]-phenyl}-5-pyridin-2-yl-4,5-dihydro-2H-pyridazin-3-one]: the inhibition constant Ki (at human H3 receptor; in assay [1]) was 0.0001 to 0.1 µM each time.

Consider `O=C1CC(c2ccccn2)C(c2ccc(OC3CCNCC3)cc2)=NN1` (stereo not shown) [Example 113, 6-[4-(Piperidin-4-yloxy)-phenyl]-5-pyridin-2-yl-4,5-dihydro-2H-pyridazin-3-one], for which the Ki (on human H3 receptor; in assay [1]) was more than 1 µM in each case.

Turning to `CC1CC(c2ccc(OC3CCN(C4CCC4)CC3)cc2)=NNC1=O` (stereo not shown) [Example 116, 6-[4-(1-Cyclobutyl-piperidin-4-yloxy)-phenyl]-4-methyl-4,5-dihydro-2H-pyridazin-3-one], the Ki (at human H3 receptor; in assay [1]) was 0.0001 to 0.1 µM throughout.

Turning to `O=c1cc(-c2ccc(OC3CCN(C4CCC4)CC3)nc2)cn[nH]1` [Example 117, 5-[6-(1-Cyclobutyl-piperidin-4-yloxy)-pyridin-3-yl]-2H-pyridazin-3-one], the Ki (at human H3 receptor; in assay [1]) was 0.0001 to 0.1 µM in each case.

As for `C[C@@H]1CCCN1CCCOc1ccc(-c2ccc(=O)n(CCF)n2)cc1` [Example 118, 2-(2-Fluoro-ethyl)-6-{4-[3-((R)-2-methyl-pyrrolidin-1-yl)-propoxy]-phenyl}-2H-pyridazin-3-one], the Ki (on human H3 receptor; in assay [1]) was 0.0001 to 0.1 µM in each case.

For the compound `C[C@@H]1CCCN1CCCOc1ccc(-c2ccc(=O)[nH]n2)cc1F` [Example 119, 6-{3-Fluoro-4-[3-((R)-2-methyl-pyrrolidin-1-yl)-propoxy]-phenyl}-2H-pyridazin-3-one], the Ki (on human H3 receptor; in assay [1]) was 0.0001 to 0.1 µM each time.

Regarding `O=c1ccc(-c2ccc(OCCCN3CCCCC3)c(F)c2)n[nH]1` [Example 120, 6-[3-Fluoro-4-(3-piperidin-1-yl-propoxy)-phenyl]-2H-pyridazin-3-one], the Ki (usually the dissociation constant of the complex between target and ligand, obtained from inhibition or displacement) lay in the range of 0.0001 to 0.1 µM at human H3 receptor and 0.101 to 0.5 µM in assay [1].

For `CC1CC(c2ccc(OCCCN3CCC[C@H]3C)cc2)=NNC1=O` (stereo partly drawn) [Example 121, 4-Methyl-6-{4-[3-((R)-2-methyl-pyrrolidin-1-yl)-propoxy]-phenyl}-4,5-dihydro-2H-pyridazin-3-one], the Ki (on human H3 receptor; in assay [1]) was 0.0001 to 0.1 µM in each case.
